≈ marks a conversion by molar mass, not a printed value.
What was measured:
[1] = test system: Vero; experiment: Compound concentration to reduce virus cytopathic effect by 50% tested against herpes simplex virus-1(KOS) using Vero cell line; assay type: functional, cell-based; details: Chlorocebus sabaeus
[2] = test system: Vero; experiment: Compound concentration to reduce virus cytopathic effect by 50% tested against herpes simplex […] using Vero cell line; assay type: functional, cell-based; details: Chlorocebus sabaeus
[3] = test system: Vero; experiment: Minimum cytotoxic compound concentration to induce microscopically detectable alteration of cell morphology, using Vero cell line; assay type: functional, Chlorocebus sabaeus
[4] = test system: MRC5; experiment: Cytotoxic compound concentration to reduce neutral red uptake by 50% using MRC-5 cell line; assay type: functional, Homo sapiens
[5] = test system: HEL; experiment: Compound concentration to reduce virus plague formation by 50% tested against human cytomegalovirus laboratory strains Davis using HEL cell line; assay type: functional, cell-based
[6] = test system: MRC5; experiment: Compound concentration to reduce virus plague formation by 50% tested against human cytomegalovirus laboratory strains P8 using MRC-5 cell line; assay type: functional, cell-based
[7] = test system: MRC5; experiment: Compound concentration to reduce virus plague formation by 50% tested against human cytomegalovirus laboratory strains Ad169 using MRC-5 cell line; assay type: functional, cell-based

## O=C1NCc2ccccc2OCCC/C=C/c2cncc3ccc1nc23
[1]
  IC50: 0.098 µg/mL (≈ 0.284 µM)
[2]
  IC50: 0.004 µg/mL (≈ 0.0116 µM)
[3]
  minimum cytotoxic concentration (MCC): 25 µg/mL
[4]
  CC50%: 0.2 µg/mL (≈ 0.579 µM)
[5]
  IC50: 0.003 µg/mL (≈ 0.00869 µM)

## Nc1nc2c(ncn2COC(CO)CO)c(=O)[nH]1 [GANCICLOVIR]
[1]
  IC50: 1.27 µg/mL (≈ 4.99 µM)
[2]
  IC50: 1.22 µg/mL (≈ 4.78 µM)
[3]
  minimum cytotoxic concentration (MCC): >100 µg/mL
[6]
  IC50: 1.2 µg/mL (≈ 4.7 µM)
[7]
  IC50: 2.2 µg/mL (≈ 8.62 µM)
[4]
  CC50%: >1000 µg/mL
[5]
  IC50: 2.7 µg/mL (≈ 10.6 µM)

## O=C1NCc2ccccc2OCC/C=C/c2cncc3ccc1nc23
[1]
  IC50: 0.391 µg/mL (≈ 1.18 µM)
[2]
  IC50: 0.009 µg/mL (≈ 0.0272 µM)
[3]
  minimum cytotoxic concentration (MCC): 6 µg/mL
[6]
  IC50: 0.0052 µg/mL (≈ 0.0157 µM)
[7]
  IC50: 0.0006 µg/mL (≈ 0.00181 µM)
[4]
  CC50%: 1.8 µg/mL (≈ 5.43 µM)
[5]
  IC50: < 0.0015 µg/mL

## Nc1ccn(C[C@@H](CO)OCP(=O)(O)O)c(=O)n1.O.O [CIDOFOVIR]
[1]
  IC50: 3.94 µg/mL
[2]
  IC50: 1.28 µg/mL
[3]
  minimum cytotoxic concentration (MCC): >100 µg/mL

## Cc1cncc2ccc(C(=O)NCc3ccccc3OC(C)C)nc12
[6]
  IC50: 0.13 µg/mL (≈ 0.388 µM)
[7]
  IC50: 0.09 µg/mL (≈ 0.268 µM)
[4]
  CC50%: 2.4 µg/mL (≈ 7.16 µM)

Reference: ChEMBL document CHEMBL1142046 (Bioorg Med Chem Lett, 2005)
